pEC50: −log10 of the molar value. Results filed as inconclusive are left out.
Target: Excitatory amino acid transporter 2 (Homo sapiens) (UniProt P43004)
Test: wild-type SLC1A2 aspartate uptake modulators, dose response, HEK293 overexpressing cells, iAspSnFR biosensor, flow cytometry (AID 1919672)
Details: HEK293 SLC1A2-OE

Sequence of Excitatory amino acid transporter 2 (Homo sapiens) (P43004 whole entry, looked up): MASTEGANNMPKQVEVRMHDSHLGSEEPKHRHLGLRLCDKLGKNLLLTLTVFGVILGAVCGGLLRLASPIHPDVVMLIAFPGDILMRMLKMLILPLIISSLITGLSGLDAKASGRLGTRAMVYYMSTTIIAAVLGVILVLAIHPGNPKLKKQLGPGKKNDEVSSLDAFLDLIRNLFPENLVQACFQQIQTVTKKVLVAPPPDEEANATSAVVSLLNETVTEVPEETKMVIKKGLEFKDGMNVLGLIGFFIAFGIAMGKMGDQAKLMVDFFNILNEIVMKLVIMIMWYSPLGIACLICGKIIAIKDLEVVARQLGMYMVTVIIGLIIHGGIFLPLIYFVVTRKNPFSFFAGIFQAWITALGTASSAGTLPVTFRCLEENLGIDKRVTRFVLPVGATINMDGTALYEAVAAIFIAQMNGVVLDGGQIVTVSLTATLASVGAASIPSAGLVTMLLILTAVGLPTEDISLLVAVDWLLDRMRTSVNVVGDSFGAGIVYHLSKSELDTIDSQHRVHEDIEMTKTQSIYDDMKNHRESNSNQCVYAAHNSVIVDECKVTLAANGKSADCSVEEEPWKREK

pEC50: 4.96
Structure (SMILES): N[C@@H](CC(=O)O)C(=O)O
